Assay results taken from patent publication US6172052A, “17β-acyl-17α-propynyl-11β-arylsteroids and their derivatives having agonist or antagonist hormonal properties” (Research Triangle Institute, priority 1998, dated 2001).

What was measured:
[1] = tested on: estrogen-primed, progesterone-stimulated immature female rabbits; test: In vivo antiprogestational activity, uterine endometrial effects scored according to McPhail; parameters: species or system rabbit; settings: oral
Experimental: In vivo Test. Antiprogestational activity was determined in vivo by dose-response studies in estrogen-primed, progesterone-stimulated immature female rabbits and results were scored according to McPhail (McPhail, J. Physiol., 83: 146 (1934)). These are standard procedures well-known to those skilled in the art. For determining antiprogestational (antagonist) activity, the test compound was given orally together with subcutaneous administration of progesterone. It was tested orally at 0.5, 1 and 2 mg total dose in estrogenprimed immature female rabbits that were simultaneously given subcutaneous progesterone. The rabbits, weighing about 1.5 kg, were primed with estrogen one a day for 6 days and then treated once a day for 5 days with 0.8 mg total dose of progesterone--i.e.160 μg/day--while at the same time giving the test compound orally once a day in a vehicle of 10% ethanol/sesame oil (0.5 mL volume). Necropsy was performed one day after the last dose. Uterine endometrial effects were scored according to McPhail and potency was evaluated by statistical comparison with the standard compound
17α-acetoxy-11β-[4-(N,N-dimethylamino)phenyl]-19-norpregna-4,9-diene-3,20-dione.

progestin receptor = test: Receptor binding: relative binding activity (RBA) for progestin receptor, competition with 3H-R5020 in T-47D cells; settings: T-47D human breast carcinoma cells; ratio of concentrations causing 50% displacement of 3H-R5020; percentage of reference standard R-5020
Experimental: Receptor Binding. The affinity of the compounds for hormone receptors was determined by standard procedures similar to those that have been described, inter alia, by Wagner et al., Proc. Natl. Acad. Sci., 93, 8739-8744 (1996) for COS-1 cells. The human breast carcinoma (T-47D) cell line was used to assess RBA for progestin receptor. The cell line used was obtained from ATCC (American Type Culture Collection) and stored frozen at -135° C. until a week before the assays were conducted. The cells were thawed and cultured to achieve the desired cell number (5 to 7 days on average). […] After incubation overnight, medium was removed, the cells were washed and solubilized and radioactivity was measured by liquid scintillation spectromctry. Nonspecific binding was determined by incubation with an excess of unlabeled R5020 and subtracted from total binding to calculate specific binding. […]
The percentage of specifically bound ^3 H-R5020 for each concentration tested was calculated and binding curves were generated by plotting the percentage of specifically bound ^3 H-R-5020 versus the concentration of the competitor. The relative binding activity (RBA) of the test compounds, relative to the reference standard (R5020) as well as the internal standard, was determined from the ratio of concentrations causing 50% displacement for each unknown and standard, and expressed as a percentage value. […]

[2] = from C. E. Cook et al, Human Reproduction, 9, Supplement 1, 32-39, June 1994; cited from earlier work

SMILES | antiprogestational potency relative to the standard compound ([1]; once a day for 5 days with subcutaneous progesterone, McPhail score, standard = 17α-acetoxy-11β-[4-(N,N-dimethylamino)phenyl]-19-norpregna-4,9-diene-3,20-dione) [fold] | antiprogestational potency relative to mifepristone ([1]; worked out from 5-fold versus standard and standard 3-fold versus mifepristone) [fold] | RBA (relative binding activity) relative to R-5020 (progestin receptor) [%] | antiprogestational activity (in words) ([1]; estrogen-primed, progesterone-stimulated immature female rabbits) | antiprogestational potency relative to mifepristone [2]
CC#C[C@]1(C(C)=O)CC[C@H]2[C@@H]3CCC4=CC(=O)CCC4=C3[C@@H](c3ccc(N(C)C)cc3)C[C@@]21C [A-1, 11β-[4-(N,N-Dimethylamino)phenyl]-17α-(1-propynyl)-19-norpregna-4,9-diene-3,20-dione] | 5 | ≤ 15 | 313 |  | 
CC#C[C@]1(C(C)=O)CC[C@H]2[C@@H]3CCC4=CC(=O)CCC4=C3[C@@H](c3ccc(C(C)=O)cc3)C[C@@]21C [A-16, 11β-(4-Acetylphenyl)-17α-(1-propynyl)-19-norpregna-4,9-diene-3,20-dione] |  |  | 439 | had antiprogestational activity | 
CC(=O)O[C@]1(C(C)=O)CC[C@H]2[C@@H]3CCC4=CC(=O)CCC4=C3[C@@H](c3ccc(N(C)C)cc3)C[C@@]21C [standard compound, 17α-acetoxy-11β-[4-(N,N-dimethylamino)phenyl]-19-norpregna-4,9-diene-3,20-dione] |  |  |  |  | approximately 3 fold
